From publication PMC10916400, “Effect of the aggregated protein dye YAT2150 on Leishmania parasite viability” (Antimicrobial Agents and Chemotherapy, 2024)

Key:
[1] = Human hepatocyte stability assay; assay type: in vitro ADME; conditions: 37°C
Procedure: A vial of human hepatocytes (100 donor pool HCP100.H15/Lot: 2010012; XenoTech, Kansas City, KS, US) was removed from the liquid nitrogen tank and immersed into a water bath. When only a small ice crystal remained, the cell suspension was transferred to a tube with the preheated suspension medium (OptiThaw hepatocyte medium, K8000; XenoTech). After a brief centrifugation at 100 × g for 5 min, hepatocytes were gently resuspended with incubation medium (OptiIncubate hepatocyte medium, K8400; XenoTech) and counted, and viability was determined using trypan blue staining. One-micromolar compounds were incubated at 37°C and 5% CO2 in the presence of 0.5 × 10^6 hepatocytes in a 500-µL incubation volume. Aliquots were taken, and reactions were terminated with ACN at each of the six sampling time points (0, 15, 30, 60, 90, and 120 min). The samples were centrifuged, and the remaining compound was determined by UPLC-MS/MS analysis as above. Intrinsic clearance was calculated from the logarithm of the remaining compound at each of the times evaluated.

Caco-2 cells = test: Caco-2 permeability assay; assay type: in vitro ADME; conditions: Caco-2, A→B, 37°C
Procedure: (§1) Caco-2 cells (ATCC under the license of Abcam Inc., doing business as NaviCyte Scientific, Berkeley, CA) cultured to confluency were trypsinized and seeded onto a filter transwell insert (high-throughput screening Transwell 96-well permeable supports; Corning Inc.) at a density of ~10,000 cells/well in Dulbecco’s modified Eagle’s medium (DMEM). Confluent cells were subcultured at passages 58–62 and grown in a humidified atmosphere of 5% CO2 at 37°C. Following an overnight attachment period (24 h after seeding), the cell medium was replaced every other day with fresh medium in both the apical and basolateral compartments. The cell monolayers were used for transport studies 21 days post-seeding, when monolayer integrity was checked by measuring the transepithelial electrical resistance (TEER). If TEER values were ≥500 Ω/cm^2, the medium was removed and the cells were washed twice with pre-warmed (37°C) Hank’s Balanced Salt Solution (HBSS). Compound stock solutions were made in DMSO and further diluted in HBSS (1% final DMSO concentration). All compounds, including controls (colchicine, E3S), were tested at a final concentration of 5 to 10 µM. For A → B directional transport, the donor working solution was added to the apical compartment (A) and HBSS as receiver working solution to the basolateral compartment (B). For B → A directional transport, the donor working solution was added to B and HBSS as receiver working solution to A. The cells were incubated at 37°C for 120 min with gentle stirring. At the end of the incubation, samples were taken from both donor and receiver compartments and transferred into 384-well plates, and compound concentrations were determined by UPLC-MS/MS analysis as for the plasma stability assay.

[2] = Caco-2 permeability assay; assay type: in vitro ADME; conditions: human
Procedure: as §1

CYP2D6 = molecular target: T1, CYP2D6 (Homo sapiens, UniProt P10635); test: Cytochrome inhibition activity assay; assay type: biochemical; conditions: human recombinant enzyme, 37°C
T1 construct: host or cells: baculovirus-infected insect cells (microsomes)
T1 sequence (P10635 whole entry): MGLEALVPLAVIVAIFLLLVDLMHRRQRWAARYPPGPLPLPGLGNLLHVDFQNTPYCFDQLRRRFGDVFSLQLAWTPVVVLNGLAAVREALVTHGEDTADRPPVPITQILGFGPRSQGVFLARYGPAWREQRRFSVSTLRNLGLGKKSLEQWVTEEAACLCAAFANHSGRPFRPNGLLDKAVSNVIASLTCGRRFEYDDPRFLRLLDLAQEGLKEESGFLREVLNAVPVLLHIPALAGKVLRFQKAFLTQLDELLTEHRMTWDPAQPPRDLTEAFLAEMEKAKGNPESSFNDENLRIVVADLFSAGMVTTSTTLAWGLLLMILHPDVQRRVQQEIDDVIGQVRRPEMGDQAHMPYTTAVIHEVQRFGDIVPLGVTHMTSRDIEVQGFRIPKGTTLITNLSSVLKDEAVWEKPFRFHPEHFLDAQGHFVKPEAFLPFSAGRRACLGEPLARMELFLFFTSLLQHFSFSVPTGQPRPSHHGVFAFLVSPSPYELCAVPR
Procedure: (§2) To screen the inhibition potential of the compounds using recombinant human cytochrome P450 enzymes (CYP1A2, CYP2C9, CYP2C19, and CYP2D6) and probe substrates with fluorescent detection, incubations were conducted in a 200-µL volume in 96-well microtiter plates (Costar #3915; Corning Inc.). Addition of cofactor-buffer mixture (0.2 M KH2PO4 buffer, 1.3 mM NADP, 3.3 mM MgCl2, 3.3 mM glucose-6-phosphate, and 0.4 U/mL glucose-6-phosphate dehydrogenase), previously diluted control Supersomes (insect cell control for Supersomes enzymes, baculovirus-insect cell-expressed; Corning Inc.), standard inhibitors (furafylline, tranylcypromine, sulfaphenazole, and quinidine), and test compounds was carried out by a Zephyr liquid handling station (Caliper Life Sciences, Hopkinton, MA, US). The plate was then pre-incubated at 37°C for 5 min, and the reaction was initiated by the addition of pre-warmed enzyme/substrate mix, which contained buffer (KH2PO4), cDNA-expressed P450 in insect cell microsomes, substrate (3-cyano-7-ethoxycoumarin for CYP1A2 and CYP2C19, 7-methoxy-4-(trifluoromethyl)coumarin for CYP2C9, and 3-[2-(N,N-diethyl-N-methylammonium)ethyl]-7-methoxy-4-methylcoumarin for CYP2D6) to obtain the final assay concentrations in a reaction volume of 200 µL. Reactions were terminated after a specific time for each cytochrome by the addition of stop solution (ACN:0.5 M tris-HCl, 80:20 vol/vol). Fluorescence in each well was measured using a fluorescence plate reader (EnVision 2104 multilabel plate reader; PerkinElmer, Waltham, MA, US), and percentage of inhibition was calculated.

CYP1A2 = molecular target: T2, CYP1A2 (Homo sapiens, UniProt P05177); test: Cytochrome inhibition activity assay; assay type: biochemical; conditions: probe 3-cyano-7-ethoxycoumarin, human recombinant enzyme, 37°C
T2 construct: host or cells: baculovirus-infected insect cells (microsomes)
T2 sequence (P05177 1-516): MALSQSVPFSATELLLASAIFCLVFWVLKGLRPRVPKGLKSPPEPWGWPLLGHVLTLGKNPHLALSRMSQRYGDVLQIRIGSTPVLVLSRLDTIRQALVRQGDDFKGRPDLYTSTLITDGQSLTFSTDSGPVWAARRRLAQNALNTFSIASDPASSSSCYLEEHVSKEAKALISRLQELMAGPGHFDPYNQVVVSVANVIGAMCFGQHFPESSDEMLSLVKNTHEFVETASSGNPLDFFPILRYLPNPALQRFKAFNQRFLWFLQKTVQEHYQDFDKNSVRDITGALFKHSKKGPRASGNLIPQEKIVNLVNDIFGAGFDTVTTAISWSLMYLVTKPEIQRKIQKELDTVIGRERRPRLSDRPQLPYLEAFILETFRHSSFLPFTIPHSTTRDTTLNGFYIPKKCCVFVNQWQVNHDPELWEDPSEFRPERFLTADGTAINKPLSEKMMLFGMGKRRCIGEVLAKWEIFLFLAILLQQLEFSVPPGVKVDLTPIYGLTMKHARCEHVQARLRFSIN
Procedure: as §2

CYP2C19 = molecular target: T3, CYP2C19 (Homo sapiens, UniProt P33261); test: Cytochrome inhibition activity assay; assay type: biochemical; conditions: human recombinant enzyme, 37°C
T3 construct: host or cells: baculovirus-infected insect cells (microsomes)
T3 sequence (P33261 whole entry): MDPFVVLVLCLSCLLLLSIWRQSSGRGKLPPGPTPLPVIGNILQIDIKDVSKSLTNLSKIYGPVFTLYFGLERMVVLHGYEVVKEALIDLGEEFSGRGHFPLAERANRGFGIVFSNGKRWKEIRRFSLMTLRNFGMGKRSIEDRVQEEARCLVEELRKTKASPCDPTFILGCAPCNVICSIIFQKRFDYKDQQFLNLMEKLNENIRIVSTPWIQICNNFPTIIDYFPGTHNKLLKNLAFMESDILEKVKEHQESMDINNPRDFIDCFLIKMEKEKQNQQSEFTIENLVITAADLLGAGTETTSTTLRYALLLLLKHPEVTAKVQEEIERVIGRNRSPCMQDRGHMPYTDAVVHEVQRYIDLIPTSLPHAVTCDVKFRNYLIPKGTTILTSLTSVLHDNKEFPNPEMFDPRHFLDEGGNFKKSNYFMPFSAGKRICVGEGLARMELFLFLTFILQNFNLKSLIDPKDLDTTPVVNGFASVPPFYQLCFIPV
Procedure: as §2

CYP2C9 = molecular target: T4, CYP2C9 (Homo sapiens, UniProt P11712); test: Cytochrome inhibition activity assay; assay type: biochemical; conditions: probe 7-methoxy-4-(trifluoromethyl)coumarin, human recombinant enzyme, 37°C
T4 construct: host or cells: baculovirus-infected insect cells (microsomes)
T4 sequence (P11712 whole entry): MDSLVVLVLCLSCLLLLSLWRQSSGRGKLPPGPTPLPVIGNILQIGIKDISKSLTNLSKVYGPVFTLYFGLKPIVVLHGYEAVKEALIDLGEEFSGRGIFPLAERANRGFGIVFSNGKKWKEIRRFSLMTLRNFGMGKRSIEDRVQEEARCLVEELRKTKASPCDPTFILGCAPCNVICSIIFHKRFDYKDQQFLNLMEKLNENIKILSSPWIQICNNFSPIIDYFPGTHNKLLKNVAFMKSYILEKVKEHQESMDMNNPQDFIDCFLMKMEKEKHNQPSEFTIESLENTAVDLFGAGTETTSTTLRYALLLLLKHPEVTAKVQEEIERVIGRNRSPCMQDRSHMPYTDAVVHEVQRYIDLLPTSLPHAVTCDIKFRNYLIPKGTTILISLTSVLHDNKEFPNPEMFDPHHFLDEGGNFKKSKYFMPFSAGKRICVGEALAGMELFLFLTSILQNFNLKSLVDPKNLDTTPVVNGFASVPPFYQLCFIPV
Procedure: as §2

For CCN(CC)c1ccc(/C=C/c2cc[n+](CCCCCCCCCC[n+]3ccc(/C=C/c4ccc(N(CC)CC)cc4)c(C)c3)cc2C)cc1 [YAT2150], the hepatocyte CLint at 1 µM ([1]; hepatocytes (cryopreserved, 100 donor pool)) was 2.5 µL/min/1e6 cells, the “t1/2, hepatocyte stability” value ([1]; human hepatocytes) was 277.3 min and the remaining at 2 h, 1 µM ([1]; human, hepatocytes (cryopreserved, 100 donor pool), after 2 h) was 70%. For the same molecule, the half-life at 1 µM ([1]; human, hepatocytes (cryopreserved, 100 donor pool), read-out: t1/2, hepatocyte stability) was 277 min, the “Papp AB” value (Caco-2 cells) was 207.6 ± 20.1 nm/s and the Papp A→B at 120 min ([2]; Caco-2, Caco-2, A→B, 37°C) was greater than 20 ×10⁻⁶ cm/s. The Papp B→A at 120 min ([2]; Caco-2, Caco-2, B→A, 37°C) was roughly 10 ×10⁻⁶ cm/s, the efflux ratio at 120 min ([2]; Caco-2, Papp BA/Papp AB) was 0.48 and the IC50 (CYP2D6) was 1700 nM. The inhibition at 10 µM (CYP1A2) was roughly 50%, the IC50 (CYP2C19) was 1100 nM and the inhibition at 10 µM (CYP2C9) was roughly 50%.
